The source of these data is patent publication US20260355199A1, “COMPOSITIONS AND METHODS FOR TREATING OR PREVENTING NONALCOHOLIC STEATOHEPATITIS (NASH), ANOREXIA, DEPRESSION, ENDOMETRIOSIS, AND OTHER DISEASES OR DISORDERS” (priority 2022, published 2026).

“Also recorded” adds a separate entry of the source.

One test deals with AGRP in the ARC. Nature of the test: AGRP expression and feeding of chow-fed mice given Bobcat339 in drinking water. It counts as in vivo, mouse. The text has this: It has previously been shown that TET3 expression is aberrantly elevated in the livers of humans and mice with type 2 diabetes and that liver-specific, siRNA-mediated TET3 knockdown improves glucose homeostasis both in dietary and genetic mouse models of diabetes (Li D. et al., 2020, Nature Communications, 11:342). Bobcat339 (4-Amino-1-[1,1′-biphenyl]-3-yl-5-chloro-2(1H)-pyrimidinone) is a synthetic cytosine derivative capable of binding competitively with 5mC to the active sites of [COMPOUND LEFT OUT] and inhibits their enzymatic activity in cultured neuronal cells (Chua G. N. L. et al., 2019, ACS Medicinal Chemistry Letters, 10:180-185). Although not bound by any particular theory, it was hypothesized that Bobcat339 has an anti-diabetic effect owing to its ability to inhibit [COMPOUND LEFT OUT]. Thus, the present studies employed high fat diet (HFD)-induced diabetic mice that were treated with Bobcat339 in drinking water for two weeks. […] Thus, nondiabetic mice fed on regular chow were treated with Bobcat339 in drinking water. Four days later, ARCs were isolated from ad libitum-fed mice and analyzed. […]
Immunofluorescence Postfixed sections were cut into 40 μm-thick sections. […] The sections were coverslipped and visualized using a Keyence BZ-X700 fluorescence microscope. The fluorescence signals from GFP and mCherry in AgRP neurons were detected without immunostaining. […]

A further test relates to TET2. The test is described as follows: TET2 expression in GT1-7 cells. The following applies: 10 μM, 6 h. It counts as cell-based, mouse. The protocol:
For Bobcat339 treatment (FIG. 15A and FIG. 15B), GT1-7 cells grown in 24-well plates at 2×10^5 cells/well were incubated with vehicle or Bobcat339 at a final concentration of 10 μM for 6 h, followed by RNA and protein extractions. For TET3 protein stability assay (FIG. 15B), GT1-7 cells in 24-well plates at 2×10^5 cells/well were incubated with vehicle or Bobcat339 at a final concentration of 10 μM for 3 hours, followed by addition of cycloheximide (CHX, Cell Signaling, 2112) at a final concentration of […] in the presence of 10 μM of Bobcat339. Proteins were harvested at 0, 1, 2, and 3 hours after addition of CHX. For TET3 expression restoration experiments (FIG. 15C and FIG. 15D), GT1-7 or SH-SY5Y cells seeded in 24-well plates at 2×10^5 cells/well were infected with Ad-GFP or Ad-TET3 at 4000 gc/cell. Following 16 h of infection, vehicle or Bobcat339 were added at a final concentration of 10 μM. Protein and RNA were isolated 48 h later and analyzed.
GT1-7 and SH-SY5Y cells in 24-well plates were collected by manual scraping in 2×SDS-sample buffer containing 1× Phosphatase inhibitor cocktail (Thermo, 78427) and 1× Protease inhibitor cocktail (Thermo, 78438), followed by heating at 100 °C for 5 min with occasional vortexing. […]

For another test, the system named is Agrp, Npy and Slc32a1. The test is described as follows: Agrp, Npy and Slc32a1 mRNA in GT1-7 cells. It counts as cell-based, mouse. The following applies: 10 μM, 48 h. From the text:
Mouse GT1-7 hypothalamic neuronal cell line (Sigma-Aldrich, SCC116) and human SH-SY5Y neuroblastoma cell line (Sigma Aldrich, 94030304) were purchased and cultured according to the manufacturers' instructions. Purified Ad-TET3 adenovirus (Ad-FLAG.h-TET3, ADV-225322, Vector Biolabs) expressing human TET3 from a CMV promoter and Ad-GFP control adenovirus (1060, Vector Biolabs) were purchased.
For Bobcat339 treatment (FIG. 15A and FIG. 15B), GT1-7 cells grown in 24-well plates at 2×10^5 cells/well were incubated with vehicle or Bobcat339 at a final concentration of 10 μM for 6 h, followed by RNA and protein extractions. […] Protein and RNA were isolated 48 h later and analyzed.
Total RNAs were extracted from neuronal cells or homogenized hypothalamic arcuate nucleus tissue samples using PureLink RNA Mini Kit (Ambion, 12183025). cDNA was synthesized using PrimeScript RT Reagent Kit in a 20 μl reaction containing 0.5-1 μg of total RNA. Real-time quantitative PCR was performed in a 15 μl reaction containing 0.5-1 μl of cDNA using SsoAdvanced Universal SYBR Green Supermix in a Bio-Rad iCycler. […]

In the case of `Nc1nc(=O)n(-c2cccc(-c3ccccc3)c2)cc1Cl` [Bobcat339, 4-Amino-1-[1,1′-biphenyl]-3-yl-5-chloro-2(1H)-pyrimidinone], the “AGRP expression in the ARC” value in the test on AGRP in the ARC (Bobcat339 100 mg/kg per day in drinking water, 4 days, 100 mg/kg/day) is “increased AGRP expression in the ARC; also recorded: increased AGRP peptide; also recorded: increased AGRP production”. Moreover, in the test on AGRP in the ARC (mice exposed to Bobcat339), the feeding entry was “induced hyperphagia”. The TET2 expression result in the test with TET2 was “did not affect TET2 expression”. Moreover, the “Agrp, Npy and Slc32a1 mRNA levels” value in the test on Agrp, Npy and Slc32a1 (with TET3-expressing adenovirus (Ad-TET3)) is “not seen when the level of TET3 protein was restored; also recorded: not seen when TET3 was overexpressed”; in the test on Agrp, Npy and Slc32a1 (without exogenous TET3) it was “increased in the mRNA levels of both Agrp and Npy; also recorded: increases in the mRNA levels of Agrp, Npy and Slc32a1; also recorded: significant increases in the Agrp/Nyp mRNAs”.
